Measurements from ChEMBL document CHEMBL1201862, “PubChem BioAssay data set” (2004).
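Briefly, cells in 96-well plates were exposed to five compound concentrations for 48 h, and endpoints were estimated by linear interpolation. The concentration for 50% growth inhibition is given as GI50.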 Activity calls are given as the source filed them. No stated cut-off is given here; in the data, active = GI50 up to about 1.1 µM and inactive = higher.

Legend:
Test in all cases: inhibition of tumour cell growth, NCI panel, 48 h
MDA-N = system: MDA-N
KM12 = system: KM12
OVCAR-5 = system: OVCAR-5
SK-MEL-2 = system: SK-MEL-2
RXF 393 = system: RXF 393
786-0 = system: 786-0
HOP-92 = system: HOP-92
HOP-62 = system: HOP-62
MCF7 = system: MCF7
OVCAR-8 = system: OVCAR-8
TK-10 = system: TK-10
BT-549 = system: BT-549
NCI-H226 = system: NCI-H226
NCI-H460 = system: NCI-H460
CCRF-CEM = system: CCRF-CEM
T47D = system: T47D
ACHN = system: ACHN
SK-OV-3 = system: SK-OV-3

Measured: GI50

Cc1n[nH]c(=O)n1/N=C/c1ccc([N+](=O)[O-])cc1
inactive: MDA-N > 100 µM | KM12 > 100 µM | OVCAR-5 > 100 µM | SK-MEL-2 > 100 µM | RXF 393 61.2 µM | 786-0 > 100 µM | HOP-92 55.3 µM | HOP-62 > 100 µM | MCF7 > 100 µM | OVCAR-8 > 100 µM | TK-10 > 100 µM | BT-549 > 100 µM | NCI-H226 > 100 µM | NCI-H460 > 100 µM | CCRF-CEM > 100 µM | T47D > 100 µM | ACHN > 100 µM

CC[C@H](C)[C@H](NC(=O)[C@@]1(O)[C@H](O)[C@]2(CC)C=CCN3CC[C@@]4(c5cc(Br)c(OC)cc5N(C)[C@@H]14)[C@@H]32)C(=O)OC
inactive: MDA-N 25.6 µM | KM12 27.2 µM | OVCAR-5 > 100 µM | SK-MEL-2 26.2 µM | RXF 393 45.5 µM | 786-0 63.5 µM | HOP-62 32.2 µM | MCF7 35.6 µM | OVCAR-8 39.4 µM | TK-10 38.3 µM | BT-549 88.5 µM | SK-OV-3 38 µM | NCI-H460 24.3 µM | CCRF-CEM 27.8 µM | T47D 52.4 µM | ACHN 24.8 µM

CC1=C(C(=O)OCCc2ccc([N+](=O)[O-])cc2)C(c2ccccc2C(F)(F)F)C(C(=O)OC(C)C)=C(C)N1 (stereo not drawn)
inactive: MDA-N 4.33 µM | KM12 2.88 µM | OVCAR-5 16.1 µM | SK-MEL-2 2.64 µM | RXF 393 1.87 µM | 786-0 4.16 µM | HOP-62 3.51 µM | MCF7 3.36 µM | OVCAR-8 4.04 µM | TK-10 3.78 µM | BT-549 3.21 µM | NCI-H226 3.15 µM | SK-OV-3 3.97 µM | NCI-H460 2.47 µM | CCRF-CEM 2.84 µM | T47D 3.12 µM | ACHN 3.06 µM

CCN(CC)C(=C(C(Cl)=C(Cl)Cl)[N+](=O)[O-])N(CC)CC
inactive: MDA-N 47.1 µM | KM12 > 100 µM | OVCAR-5 > 100 µM | RXF 393 17.3 µM | 786-0 > 100 µM | HOP-62 > 100 µM | MCF7 > 100 µM | OVCAR-8 > 100 µM | TK-10 > 100 µM | BT-549 83 µM | NCI-H226 > 100 µM | SK-OV-3 > 100 µM | NCI-H460 55 µM | CCRF-CEM 30.6 µM | T47D 61.8 µM | ACHN 72.6 µM

CN1C(=O)C(c2c[nH]c3ccccc23)N(C)C(=O)C1c1c[nH]c2ccccc12 (stereo not drawn)
inactive: MDA-N > 100 µM | KM12 > 100 µM | OVCAR-5 > 100 µM | RXF 393 46.9 µM | 786-0 53.2 µM | HOP-92 37.2 µM | HOP-62 63.4 µM | MCF7 > 100 µM | OVCAR-8 > 100 µM | TK-10 > 100 µM | BT-549 > 100 µM | SK-OV-3 > 100 µM | NCI-H460 > 100 µM | CCRF-CEM > 100 µM | T47D > 100 µM | ACHN 72.8 µM

CSc1ncc2c(C#N)c3n(C)c4ccccc4n3c(=O)c2n1
inactive: KM12 > 100 µM | OVCAR-5 > 100 µM | SK-MEL-2 > 100 µM | RXF 393 > 100 µM | 786-0 > 100 µM | HOP-92 > 100 µM | HOP-62 > 100 µM | MCF7 > 100 µM | OVCAR-8 > 100 µM | TK-10 > 100 µM | BT-549 > 100 µM | NCI-H226 > 100 µM | SK-OV-3 > 100 µM | NCI-H460 > 100 µM | CCRF-CEM > 100 µM | T47D > 100 µM | ACHN > 100 µM

C=CCCCCCCC#CCCCCCCCCCC[C@@H]1C(=O)O[C@H](C)[C@@H]1O.CCCCCCCCC#CCCCCCCCCCC[C@@H]1C(=O)O[C@H](C)[C@@H]1O
inactive: MDA-N 23.2 µM | KM12 10.1 µM | OVCAR-5 59.2 µM | SK-MEL-2 14.7 µM | RXF 393 11.4 µM | 786-0 15.8 µM | HOP-92 10.5 µM | HOP-62 16 µM | MCF7 15.4 µM | OVCAR-8 15.3 µM | TK-10 15.7 µM | BT-549 15.5 µM | NCI-H226 27.1 µM | SK-OV-3 36.6 µM | NCI-H460 11.7 µM | T47D 14.9 µM | ACHN 17.7 µM

O=C1CC(c2cccc([N+](=O)[O-])c2)C2(C(=O)NC(=S)NC2=O)C(c2cccc([N+](=O)[O-])c2)C1 (stereo not drawn)
inactive: MDA-N 43 µM | KM12 26.6 µM | OVCAR-5 39.9 µM | SK-MEL-2 35.9 µM | 786-0 34.8 µM | HOP-92 28.2 µM | HOP-62 30.3 µM | MCF7 26.8 µM | OVCAR-8 21.2 µM | TK-10 13.9 µM | BT-549 26.2 µM | NCI-H226 21 µM | SK-OV-3 32.7 µM | NCI-H460 35.6 µM | CCRF-CEM 27.6 µM | T47D 81.3 µM | ACHN 72.1 µM
